Laboratory results: patent US20240209028A1, “CNP COMPOUNDS” (priority 2022, published 2024)
Where two headings read alike, the source gives them in different places. Starred links: 1 amine or outer side, 2 acyl side, 3 side chain; linkers in the order of their positions; H or OH if unused. Positions of bridges follow the written chain, without caps; N, C: chain ends. Residues, ends and D or L forms follow the SMILES beside them. *: point of attachment. C18 diacid = O=C(O)CCCCCCCCCCCCCCCCC(=O)*; γGlu = O=C(O)[C@H](CCC(=O)[*:2])N[*:1]; AEEA = NCCOCCOCC(=O)O

Assay: PK of CNP compounds after i.v. and s.c. administration to rats
Settings: male, Sprague Dawley, in vivo, rat
Experimental: In order to assess the i.v. and s.c. PK/PD profile of CNP compounds of the present invention, formulations of CNP compounds were administered to rats, blood samples taken and exposure and cGMP response measured.
Quantitative plasma analysis of CNP-compounds: Plasma concentrations of CNP compounds were assayed by plasma protein precipitation and analysed by turboflow liquid chromatography mass spectrometry (TF-LC-MS). Calibrators were prepared by spiking either blank rat or minipig plasma with the relevant CNP compound in the range from 0.5 to 2000 nM. Calibrators, plasma blanks or study samples were prepared for TF-LC-MS by protein precipitation by adding three or four volumes of either ethanol or methanol containing 20 nM of internal standard to one volume of sample. For some compounds, formic acid was added to the precipitation reagent (the final concentration was 1% v/v). After the addition of the precipitation reagent, the mixture was centrifuged at 6200 rpm at 4° C. for 30 minutes. After centrifugation, one volume of supernatant was mixed with two volumes of water (with 1% v/v formic acid). The mixture was analysed by TF-LC-MS using a Cyclone turboflow column (0.5×50 mm, ThermoFisher Scientific) and either a XBridge Protein BEH C4 3.5 μm 300 Åor a XBridge Protein BEH C18 3.5 μm 130 Åanalytical column (both were 50×2.1 mm and obtained from Waters). […] The mass spectrometer was operated in positive ionisation mode. A TSQ Altis mass spectrometer (ThermoFisher Scientific) was used as detector in selected reaction monitoring mode (specific transition were optimised for each CNP compound). Linear calibration curves (weighed 1/×2) were used for calculating the concentration in the plasma samples. Quality control samples were included. The deviation between nominal and calculated concentration in the calibrators and quality control samples were below 15%.
Animals and dosing: Groups of 4-6 rats (male, Sprague Dawley, 350 g at arrival, Janvier, France) per compound and route of administration were dosed with a CNP compound formulated either in A) 8 mM sodium phosphate, 250 mM glycerol, 0.007% polysorbate 20, pH 7.4 or B) 5 mM sodium acetate, 250 mM glycerol, 0.007% polysorbate 20, pH 4.0 depending on the respective compound. S.c. dose was 300 nmol/kg, at a concentration of […] resulting in a dosing volume of 0.3 mL/kg, whereas i.v. dose was 100 nmol/kg, at a concentration of […] resulting in a dosing volume of 1 mL/kg.
Sampling: Sublingual blood samples of 250 uL were collected from unanaesthetised rats in EDTA-coated vials (Microvette 600K3E ref #15.1673.100 Sarstedt) at baseline (-1 h before dosing) as well as 5 min (only i.v. dosed groups), 2 h, 6 h, 24 h, 48 h and 72 h (only for exposure analysis) post-dosing. The blood samples were quickly stored on ice and centrifuged (4° C., 8000 RPM, 5 min) within 10 min of collection. Plasma samples of 50 μL were transferred to each micronic tube for either exposure or cGMP analysis, kept on dry ice and stored in a freezer (−20° C.). Rats had access to food (Altromin) and tap water ad libitum.
Analysis: PK parameters were calculated by non-compartment analysis (NCA) using software Phoenix WinNonlin (ver. 8.1 or later, Certara) for each animal. Clearance (Cl) was calculated as: Dose/AUCinf (linear up, log down). […] Bioavailability was calculated as dose normalized AUC's: (AUC(sc)/Dose(sc))/(AUC(iv)/Dose(iv)). Values in the table are means from individual animals (n=4-6 individual animals). The subsequent plots for cGMP plasma concentration versus time are (Y-axis) mean cGMP concentration (n=4-6 individual animals) after IV dosing and (X-axis) nominal plasma sampling time.
Plasma cGMP are reported as the mean.

[1] = iv, i.v., about 100 nmol/kg, read-out: Cl (L/hr/kg), i.v. administration (converted)
[2] = iv, i.v., about 100 nmol/kg, read-out: T½ (hr), i.v. administration (converted)
[3] = sc, s.c. bioavailability, about 300 nmol/kg, read-out: F (%), s.c. administration
[4] = sc, s.c., about 300 nmol/kg, read-out: T½ (hr), s.c. administration (converted)

Question: Which results are given for CC[C@H](C)[C@@H]1NC(=O)[C@H](CCCNC(=N)N)NC(=O)[C@H](CC(=O)O)NC(=O)[C@H](CC(C)C)NC(=O)[C@@H]2CCCN2C(=O)[C@H](CC(C)C)NC(=O)CNC(=O)[C@H](Cc2ccccc2)NC(=O)[C@@H](NC(=O)CNC(=O)[C@H](CO)NC(=O)[C@H](CO)NC(=O)[C@H](CC(C)C)NC(=O)CNC(=O)[C@H](CCCCN)NC(=O)[C@H](CCCCN)NC(=O)[C@H](CCC(N)=O)NC(=O)[C@H](C)NC(=O)CNC(=O)[C@H](CCC(=O)O)NC(=O)[C@H](Cc2ccc(O)cc2)NC(=O)COCCOCCNC(=O)COCCOCCNC(=O)CC[C@H](NC(=O)CCCCCCCCCCCCCCCCC(=O)O)C(=O)O)CSSC[C@@H](C(=O)O)NC(=O)CNC(=O)[C@H](CC(C)C)NC(=O)CNC(=O)[C@H](CO)NC(=O)[C@H](CC(C)C)NC(=O)[C@H](CO)NC(=O)CNC1=O [compound 1227] ({C18 diacid-γGlu-AEEA-AEEA}-YEGAQKKGLSSGCFGLPLDRIGSLSGLGC-OH; disulfide 13-29)?
Answer: clearance [1]: 0.0168 L/h/kg; half-life [2]: 3.56 h

Question: For CC[C@H](C)[C@@H]1NC(=O)[C@H](CCCNC(=N)N)NC(=O)[C@H](CC(=O)O)NC(=O)[C@H](CC(C)C)NC(=O)[C@@H]2CCCN2C(=O)[C@H](CC(C)C)NC(=O)CNC(=O)[C@H](Cc2ccccc2)NC(=O)[C@@H](NC(=O)CNC(=O)[C@H](CO)NC(=O)[C@H](CO)NC(=O)[C@H](CC(C)C)NC(=O)CNC(=O)[C@H](CCCCN)NC(=O)[C@H](CCCCN)NC(=O)[C@H](CCC(N)=O)NC(=O)[C@H](C)NC(=O)CNC(=O)[C@H](Cc2c[nH]cn2)NC(=O)[C@H](Cc2ccc(O)cc2)NC(=O)COCCOCCNC(=O)COCCOCCNC(=O)CC[C@H](NC(=O)CCCCCCCCCCCCCCCCC(=O)O)C(=O)O)CSSC[C@@H](C(=O)O)NC(=O)CNC(=O)[C@H](CC(C)C)NC(=O)CNC(=O)[C@H](CO)NC(=O)[C@H](CC(C)C)NC(=O)[C@H](CO)NC(=O)CNC1=O [compound 1241] ({C18 diacid-γGlu-AEEA-AEEA}-YHGAQKKGLSSGCFGLPLDRIGSLSGLGC-OH; disulfide 13-29), which clearance [1] is on record?
Answer: The clearance was 0.0164 L/h/kg.

Question: What about the half-life [2] of the same molecule?
Answer: Its half-life is 2.78 h.

Question: What does the source list for CC[C@H](C)[C@@H]1NC(=O)[C@H](CCCNC(=N)N)NC(=O)[C@H](CC(=O)O)NC(=O)[C@H](CC(C)C)NC(=O)[C@@H]2CCCN2C(=O)[C@H](CC(C)C)NC(=O)CNC(=O)[C@H](Cc2ccccc2)NC(=O)[C@@H](NC(=O)CNC(=O)[C@H](CO)NC(=O)[C@H](CO)NC(=O)[C@H](CC(C)C)NC(=O)CNC(=O)[C@H](CCCCN)NC(=O)[C@H](CCCCN)NC(=O)[C@H](CCC(N)=O)NC(=O)[C@H](C)NC(=O)CNC(=O)[C@H](CCCCN)NC(=O)[C@H](Cc2ccc(O)cc2)NC(=O)COCCOCCNC(=O)COCCOCCNC(=O)COCCOCCNC(=O)CC[C@H](NC(=O)CC[C@H](NC(=O)CCCCCCCCCCCCCCCCC(=O)O)C(=O)O)C(=O)O)CSSC[C@@H](C(=O)O)NC(=O)CNC(=O)[C@H](CC(C)C)NC(=O)CNC(=O)[C@H](CO)NC(=O)[C@H](CC(C)C)NC(=O)[C@H](CO)NC(=O)CNC1=O [compound 1356] ({C18 diacid-γGlu-γGlu-AEEA-AEEA-AEEA}-YKGAQKKGLSSGCFGLPLDRIGSLSGLGC-OH; disulfide 13-29; C-terminus assumed)?
Answer: clearance [1]: 0.0141 L/h/kg; half-life [2]: 3.47 h

Question: Which clearance [1] does the source give for CC[C@H](C)[C@@H]1NC(=O)[C@H](CCCNC(=N)N)NC(=O)[C@H](CC(=O)O)NC(=O)[C@H](CC(C)C)NC(=O)[C@@H]2CCCN2C(=O)[C@H](CC(C)C)NC(=O)CNC(=O)[C@H](Cc2ccccc2)NC(=O)[C@@H](NC(=O)CNC(=O)[C@H](CCCCN)NC(=O)[C@H](CO)NC(=O)[C@H](CC(C)C)NC(=O)CNC(=O)[C@H](CCCCN)NC(=O)[C@H](CCCCN)NC(=O)[C@H](CCC(N)=O)NC(=O)[C@H](C)NC(=O)CNC(=O)[C@H](CCC(=O)O)NC(=O)[C@H](Cc2ccc(O)cc2)NC(=O)COCCOCCNC(=O)COCCOCCNC(=O)CC[C@H](NC(=O)CCCCCCCCCCCCCCCCC(=O)O)C(=O)O)CSSC[C@@H](C(=O)O)NC(=O)CNC(=O)[C@H](CC(C)C)NC(=O)CNC(=O)[C@H](CO)NC(=O)[C@H](CC(C)C)NC(=O)[C@H](CO)NC(=O)CNC1=O [compound 1225] ({C18 diacid-γGlu-AEEA-AEEA}-YEGAQKKGLSKGCFGLPLDRIGSLSGLGC-OH; disulfide 13-29) here?
Answer: The clearance was 0.0103 L/h/kg.

Question: What about the half-life [2] of the same molecule?
Answer: The half-life was 5.03 h.

Question: And the bioavailability [3]?
Answer: The bioavailability was 61.2%.

Question: And the half-life [4]?
Answer: The half-life was 5.1 h.

Question: What does the source list for CC[C@H](C)[C@@H]1NC(=O)[C@H](CCCNC(=N)N)NC(=O)[C@H](CCC(=O)O)NC(=O)[C@H](CC(C)C)NC(=O)[C@H](CCCCN)NC(=O)[C@H](CC(C)C)NC(=O)CNC(=O)[C@H](Cc2ccccc2)NC(=O)[C@@H](NC(=O)CNC(=O)[C@H](CCCCN)NC(=O)[C@H](CO)NC(=O)[C@H](CC(C)C)NC(=O)CNC(=O)[C@H](CCCCN)NC(=O)[C@H](CCCCN)NC(=O)[C@H](CCC(N)=O)NC(=O)[C@H](C)NC(=O)CNC(=O)[C@H](CCCCN)NC(=O)[C@H](Cc2ccc(O)cc2)NC(=O)[C@H](CCCCN)NC(=O)[C@H](CCCNC(=N)N)NC(=O)[C@H](C)NC(=O)COCCOCCNC(=O)COCCOCCNC(=O)CC[C@H](NC(=O)CCCCCCCCCCCCCCCCC(=O)O)C(=O)O)CSSC[C@@H](C(=O)O)NC(=O)CNC(=O)[C@H](CC(C)C)NC(=O)CNC(=O)[C@H](CO)NC(=O)[C@H](CC(C)C)NC(=O)[C@H](CO)NC(=O)CNC1=O [compound 0776] ({C18 diacid-γGlu-AEEA-AEEA}-ARKYKGAQKKGLSKGCFGLKLERIGSLSGLGC-OH; disulfide 16-32)?
Answer: clearance (iv, 100 nmol/kg): 0.00613 L/h/kg; half-life (iv, 100 nmol/kg): 10.7 h; bioavailability (sc, 300 nmol/kg): 7.35%; half-life (sc, 300 nmol/kg): 5.63 h

Question: Which results are given for CC[C@H](C)[C@@H]1NC(=O)[C@H](CCCNC(=N)N)NC(=O)[C@H](CC(=O)O)NC(=O)[C@H](CC(C)C)NC(=O)[C@@H]2CCCN2C(=O)[C@H](CC(C)C)NC(=O)CNC(=O)[C@H](Cc2ccccc2)NC(=O)[C@@H](NC(=O)CNC(=O)[C@H](CO)NC(=O)[C@H](CO)NC(=O)[C@H](CC(C)C)NC(=O)CNC(=O)[C@H](CCCCN)NC(=O)[C@H](CCCCN)NC(=O)[C@H](CCC(N)=O)NC(=O)[C@H](C)NC(=O)CNC(=O)[C@H](CCCCN)NC(=O)[C@H](Cc2ccc(O)cc2)NC(=O)COCCOCCNC(=O)COCCOCCNC(=O)CC[C@H](NC(=O)CCCCCCCCCCCCCCCCC(=O)O)C(=O)O)CSSC[C@@H](C(=O)O)NC(=O)CNC(=O)[C@H](CC(C)C)NC(=O)CNC(=O)[C@H](CO)NC(=O)[C@H](CC(C)C)NC(=O)[C@H](CO)NC(=O)CNC1=O [compound 1233] ({C18 diacid-γGlu-AEEA-AEEA}-YKGAQKKGLSSGCFGLPLDRIGSLSGLGC-OH; disulfide 13-29)?
Answer: clearance [1]: 0.0246 L/h/kg; half-life [2]: 1.42 h; bioavailability [3]: 33.8%; half-life [4]: 3.57 h

Question: What does the source list for CC[C@H](C)[C@@H]1NC(=O)[C@H](CCCNC(=N)N)NC(=O)[C@H](CC(=O)O)NC(=O)[C@H](CC(C)C)NC(=O)[C@H](CCCCN)NC(=O)[C@H](CC(C)C)NC(=O)CNC(=O)[C@H](Cc2ccccc2)NC(=O)[C@@H](NC(=O)CNC(=O)[C@H](CCCCN)NC(=O)[C@H](CO)NC(=O)[C@H](CC(C)C)NC(=O)CNC(=O)[C@H](CCCCN)NC(=O)[C@H](CCCCN)NC(=O)[C@H](CCC(N)=O)NC(=O)[C@H](C)NC(=O)CNC(=O)[C@H](Cc2c[nH]cn2)NC(=O)[C@H](CCC(=O)O)NC(=O)COCCOCCNC(=O)COCCOCCNC(=O)CC[C@H](NC(=O)CCCCCCCCCCCCCCCCC(=O)O)C(=O)O)CSSC[C@@H](C(=O)O)NC(=O)CNC(=O)[C@H](CC(C)C)NC(=O)CNC(=O)[C@H](CO)NC(=O)[C@H](CC(C)C)NC(=O)[C@H](CO)NC(=O)CNC1=O [compound 1235]?
Answer: clearance (iv, 100 nmol/kg): 0.0115 L/h/kg; half-life (iv, 100 nmol/kg): 6.2 h; bioavailability (sc, 300 nmol/kg): 65.8%; half-life (sc, 300 nmol/kg): 6.28 h
